Consider 2 compounds from patent US9040530B2, “1,2,4-triazine-6-carboxamide kinase inhibitors” (Portola Pharmaceuticals, Inc., priority 2012, dated 2015).

In general, IC50 refers to the midpoint of a concentration-inhibition curve.

The structures appear in SMILES notation.

The target of the assay is T1, full length active recombinant SYK enzyme (Homo sapiens, UniProt P43405).
T1 construct: full length active recombinant SYK enzyme (Millipore, Calif.); purchased Millipore
The assay is described as follows: Inhibition of Syk tyrosine phosphorylation activity (LANCE TR-FRET kinase assay). It counts as biochemical. Particulars: 1 nM active SYK enzyme, 550 nM SYK-substrate, 100 μM ATP, 1 hour at room temperature. (In general: In TR-FRET formats the signal depends on donor and acceptor labels being close together.)

For the compound `NC(=O)c1nnc(N[C@@H]2CCOC[C@@H]2N)nc1Nc1cnc2cccnc2c1` [Example 257, 5-((1,5-naphthyridin-3-yl)amino)-3-(((3R,4R)-3-aminotetrahydro-2H-pyran-4-yl)amino)-1,2,4-triazine-6-carboxamide], the IC50 lay within 100 to 1000 nM. Turning to `NC(=O)c1nnc(N[C@@H]2CCCC[C@@H]2N)nc1Nc1cnc2cccnc2c1` [Example 258, 5-((1,5-naphthyridin-3-yl)amino)-3-(((1R,2S)-2-aminocyclohexyl)amino)-1,2,4-triazine-6-carboxamide], the IC50 lay within 10 to 100 nM.
